According to paper PMC9020739, “Identification of a two-component regulatory system involved in antimicrobial peptide resistance in Streptococcus pneumoniae” (PLoS Pathogens, 2022):
Where a SMILES comes first, the peptide text is derived from it. Bridges are numbered along the chain shown (N, C = ends). [ ]: non-standard residue; d: D form. The star is where a group is joined. Ileψ(thiazoline)Cys = CC[C@H](C)[C@H](N)C1=N[C@H](C(=O)*)CS1; dOrn = NCCC[C@@H](N)C(=O)O

Test system: S. pneumoniae R6 mutant strains (ΔbceAB, Δtcs01, ΔbceAB/tcs01)
Assay: Growth of wild-type and mutant strains in microplates with bacitracin
Type: cell-based, Streptococcus pneumoniae
Details: Todd-Hewitt broth, various bacitracin concentrations, 4 biological replicates (Fig 1)
Procedure: The MIC of various antimicrobial peptides for R6, R800 and D39 strains was determined by classical 2-fold broth dilution method. Cells were first grown in Todd-Hewitt medium at 37°C without agitation and in anaerobic conditions until the absorbance reaches approximatively 0.3. Complementation strains were grown with 0.5 μM ComS inducer until the appropriate OD. Cells were then diluted at final OD600nm = 0.002 in 96-well plates containing 300 μL of Todd-Hewitt medium (and 2 μM ComS inducer for the complementation strains) with serial dilutions of antimicrobial peptides. Pneumococcal growth was monitored by a microplate reader (TECAN) at 37°C without agitation. The absorbance was followed at 600 nm every 15 min for 15 h.

CC[C@H](C)[C@H](N)C1=N[C@H](C(=O)N[C@@H](CC(C)C)C(=O)N[C@H](CCC(=O)O)C(=O)N[C@H](C(=O)N[C@H]2CCCCNC(=O)[C@H](CC(N)=O)NC(=O)[C@@H](CC(=O)O)NC(=O)[C@H](Cc3cnc[nH]3)NC(=O)[C@@H](Cc3ccccc3)NC(=O)[C@H]([C@@H](C)CC)NC(=O)[C@@H](CCCN)NC2=O)[C@@H](C)CC)CS1 [bacitracin] ({Ileψ(thiazoline)Cys}-L[dE]IK[dOrn]I[dF]H[dD]N; lactam 4-C (inferred); N-terminus assumed)
Growth of the mutant strains: severely impaired
